# Assay results taken from article PMC3502340, “Agglutinating Activity and Structural Characterization of Scalarin, the Major Egg Protein of the Snail Pomacea scalaris (d’Orbigny, 1832)” (PLoS ONE, 2012).
# System: T1, scalarin (PsSC)
# T1 construct: native, purified from newly laid egg clutches (ultracentrifugation, size exclusion); 380 kDa glycosylated carotenoprotein oligomer of 35, 28 and 24 kDa subunits
# Experiment: inhibition of rabbit erythrocyte hemagglutination (titre)
# Assay type: cell-based, Pomacea scalaris
# Details: 200000 µM, TBS pH 7.4, 37 °C, 1 h preincubation, 2% rabbit erythrocytes
# Description: inhibition of rabbit erythrocyte hemagglutination (titre) on scalarin (PsSC)
SMILES,% Inhibition,% Inhibition (text prints 99.99%)
CC(=O)N[C@H]1C(O)O[C@H](CO)[C@H](O)[C@@H]1O (stereo partly drawn) [N-acetyl-D-galactosamine],50.0%,–
N[C@H]1C(O)O[C@H](CO)[C@H](O)[C@@H]1O (stereo partly drawn) [galactosamine],–,99.9%
N[C@H]1C(O)O[C@H](CO)[C@@H](O)[C@@H]1O (stereo partly drawn) [glucosamine],99.6%,–
